The nature of series [1]: TA4-1A in brain compared to plasma in rats. Conditions: both sexes, rat, female and male rats, eight hour exposure, read-out: Agent available in the brain as compared to the amount in plasma. Format: in vivo. The method, then: (§1) where w=width and 1=length in mm of the tumor. Tumor weight was estimated with the assumption that 1 mg is equivalent to 1 mm^3 of tumor volume. Mice were daily dosed with compound TA4-1A at 12.5 mg/kg (IV) during 14 days. A wash-out period ensued for four days with no dosing, and the last dose was administered after the wash-out period (day 19) at 12.5 mg/kg. At one, two and twenty-four hour time points plasma, brain and tumor samples were collected from terminal mice and frozen. It was determined that the tumor contained 35%, plasma contained 64% and brain contained 1% of the therapeutic agent after the one hour time point, and the tumor contained 74%, plasma contained 24% and brain contained 2% of the therapeutic agent after the two hour time point. At the 24 hour time point, tumor contained 17%, plasma contained 49% and brain contained 34% of the therapeutic agent. After an eight hour exposure to the agent in female and male rats, approximately 3-4% of the agent was available in the brain as compared to the amount in plasma. […] Examples of cell lines and particular brain cancers are described herein.

A short description of series [2]: TA4-1A in plasma, brain and tumor of HCT116 tumor-bearing mice. Format: in vivo. The settings on record: for Share of the therapeutic agent in brain / Share of the therapeutic agent in plasma / Share of the therapeutic agent in tumor: mice, 12.5 mg/kg IV daily 14 days, wash-out, last dose day 19.
Description: In vivo experiment protocols were approved by the Animal Use and Care Committee. Female NCr nu/nu mice were purchased from Taconic Farms and group housed in a ventilated rack system on a 12/12 light cycle. All housing materials and water were autoclaved prior to use. The mice were fed ad libitum with gamma-irradiated laboratory chow and acidified water. Animals were handled under laminar-flow hoods. Animals were inoculated subcutaneously in the right flank with 5×10̂6 HCT116 cells. Tumors were monitored twice weekly and then daily as they approached the appropriate size for study. On Day 1 of the study, the animals were randomized into n=3 treatment groups with group average tumor sizes of 109 mm^3.
as §1

In the case of `CC(=O)N1CCN(c2nc3c(cc2F)c(=O)c(C(=O)NCCN2CCCC2)c2n(C)c4ccccc4n32)CC1` [TA4-1A], the Kp at 8 h in series [1] is 0.03 to 0.04. Moreover, the Blood-brain barrier permeation result in series [2] (mice and rats, conclusion from brain levels) is recorded as “can permeate the blood-brain barrier to some extent”. In series [2] (24 hour), the “Share of the therapeutic agent in brain” value is 34%, the “Share of the therapeutic agent in plasma” value was 49% and the “Share of the therapeutic agent in tumor” value was determined as 17%. Moreover, in series [2] (one hour), the “Share of the therapeutic agent in brain” value is 1%, the “Share of the therapeutic agent in plasma” value worked out at 64% and the “Share of the therapeutic agent in tumor” value is reported as 35%. Moreover, in series [2] (two hour), the “Share of the therapeutic agent in brain” value is given as 2%, the “Share of the therapeutic agent in plasma” value is on record as 24% and the “Share of the therapeutic agent in tumor” value is on record as 74%.

For the origin of these results see US20080318938A1, “METHODS FOR TREATING ABERRANT CELL PROLIFERATION DISORDERS” (priority 2007, published 2008).
